Laboratory results: PubChem BioAssay AID2060507 (Molecular Pharmacology Branch, DTP, NCI, 2025)

Tested on: 519858-162-T-J1-PDC complex spheroid viability
Assay: Anticancer human tumor 519858-162-T-J1-PDC patient-derived colon adenocarcinoma cell line growth inhibition [GQUAD]
Settings: for IC50: curve of first compound; for viability, T/C: stronger effect = lower value
Method in brief: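 Multi-cell-type spheroids of tumor cells with HUVEC and mesenchymal stem cells, treated with drug combinations. Concentrations descend in half-log steps from near clinical Cmax, or from 10 microM where Cmax is unknown; viability read-out.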

[1] = second compound 0.0316 µM, first compound 0.0316 µM
[2] = second compound 0.0316 µM, first compound 0.1 µM
[3] = second compound 0.0316 µM, first compound 0.316 µM
[4] = second compound 0.0316 µM, first compound 1 µM
[5] = second compound 0.0316 µM, first compound 3.16 µM
[6] = second compound 0.0316 µM, first compound 10 µM
[7] = second compound 0.1 µM, first compound 0.0316 µM
[8] = second compound 0.1 µM, first compound 0.1 µM
[9] = second compound 0.1 µM, first compound 0.316 µM
[10] = second compound 0.1 µM, first compound 1 µM
[11] = second compound 0.1 µM, first compound 3.16 µM
[12] = second compound 0.1 µM, first compound 10 µM
[13] = second compound 0.316 µM, first compound 0.0316 µM
[14] = second compound 0.316 µM, first compound 0.1 µM
[15] = second compound 0.316 µM, first compound 0.316 µM
[16] = second compound 0.316 µM, first compound 1 µM
[17] = second compound 0.316 µM, first compound 3.16 µM
[18] = second compound 0.316 µM, first compound 10 µM
[19] = second compound 1 µM, first compound 0.0316 µM
[20] = second compound 1 µM, first compound 0.1 µM
[21] = second compound 1 µM, first compound 0.316 µM
[22] = second compound 1 µM, first compound 1 µM
[23] = second compound 1 µM, first compound 3.16 µM
[24] = second compound 1 µM, first compound 10 µM
[25] = second compound 3.16 µM, first compound 0.0316 µM
[26] = second compound 3.16 µM, first compound 0.1 µM
[27] = second compound 3.16 µM, first compound 0.316 µM
[28] = second compound 3.16 µM, first compound 1 µM
[29] = second compound 3.16 µM, first compound 3.16 µM
[30] = second compound 3.16 µM, first compound 10 µM
[31] = second compound 10 µM, first compound 0.0316 µM
[32] = second compound 10 µM, first compound 0.1 µM
[33] = second compound 10 µM, first compound 0.316 µM
[34] = second compound 10 µM, first compound 1 µM
[35] = second compound 10 µM, first compound 3.16 µM
[36] = second compound 10 µM, first compound 10 µM
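Further: spheroids exposed to compounds for 7 days.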
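Wherever viability, T/C is given: 100% = DMSO vehicle control viability.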

SMILES: CC1COCCN1c1cc(C2(S(C)(=N)=O)CC2)nc(-c2ccnc3[nH]ccc23)n1 (centres undefined) + Cc1cnc(CNC(=O)c2c(=O)c3ccc(N4CCCN(C)CC4)nc3n3c2sc2ccccc23)cn1
- IC50 (second compound 0.0316 µM): 10 µM
- IC50 (second compound 0.1 µM): > 10 µM
- IC50 (second compound 0.316 µM): > 10 µM
- IC50 (second compound 1 µM): > 10 µM
- IC50 (second compound 3.16 µM): < 0.0316 µM
- IC50 (second compound 10 µM): < 0.0316 µM
- viability, T/C [1]: 90.9%
- viability, T/C [2]: 84.6%
- viability, T/C [3]: 89%
- viability, T/C [4]: 98.5%
- viability, T/C [5]: 48%
- viability, T/C [6]: 67.8%
- viability, T/C [7]: 114%
- viability, T/C [8]: 91.3%
- viability, T/C [9]: 84.3%
- viability, T/C [10]: 59.8%
- viability, T/C [11]: 55.2%
- viability, T/C [12]: 78.5%
- viability, T/C [13]: 79.3%
- viability, T/C [14]: 92.8%
- viability, T/C [15]: 67.8%
- viability, T/C [16]: 82.6%
- viability, T/C [17]: 79.3%
- viability, T/C [18]: 66.6%
- viability, T/C [19]: 48.6%
- viability, T/C [20]: 57.5%
- viability, T/C [21]: 74.4%
- viability, T/C [22]: 44.8%
- viability, T/C [23]: 48.2%
- viability, T/C [24]: 57.7%
- viability, T/C [25]: 35.9%
- viability, T/C [26]: 39%
- viability, T/C [27]: 45.5%
- viability, T/C [28]: 56.4%
- viability, T/C [29]: 51.4%
- viability, T/C [30]: 51.1%
- viability, T/C [31]: 46%
- viability, T/C [32]: 35.6%
- viability, T/C [33]: 62.2%
- viability, T/C [34]: 41%
- viability, T/C [35]: 58.8%
- viability, T/C [36]: 37.4%

SMILES: COc1ccc([C@@H](O)c2cc(-c3ncnc4cc(N5CCOCC5)ccc34)c(F)cc2Cl)nn1 + Cc1cnc(CNC(=O)c2c(=O)c3ccc(N4CCCN(C)CC4)nc3n3c2sc2ccccc23)cn1
- IC50 (second compound 0.0316 µM): 10 µM
- IC50 (second compound 0.1 µM): 3.66 µM
- IC50 (second compound 0.316 µM): 4.18 µM
- IC50 (second compound 1 µM): 9.07 µM
- IC50 (second compound 3.16 µM): 0.243 µM
- IC50 (second compound 10 µM): < 0.0316 µM
- viability, T/C [1]: 72.4%
- viability, T/C [2]: 102%
- viability, T/C [3]: 81.6%
- viability, T/C [4]: 99.3%
- viability, T/C [5]: 48.9%
- viability, T/C [6]: 53%
- viability, T/C [7]: 75.6%
- viability, T/C [8]: 70.5%
- viability, T/C [9]: 62.8%
- viability, T/C [10]: 50.8%
- viability, T/C [11]: 55.1%
- viability, T/C [12]: 44.8%
- viability, T/C [13]: 109%
- viability, T/C [14]: 72.9%
- viability, T/C [15]: 80%
- viability, T/C [16]: 56.1%
- viability, T/C [17]: 41.7%
- viability, T/C [18]: 52%
- viability, T/C [19]: 56.7%
- viability, T/C [20]: 49.9%
- viability, T/C [21]: 48.1%
- viability, T/C [22]: 47.9%
- viability, T/C [23]: 67.3%
- viability, T/C [24]: 41%
- viability, T/C [25]: 58.4%
- viability, T/C [26]: 62.2%
- viability, T/C [27]: 46.9%
- viability, T/C [28]: 30%
- viability, T/C [29]: 34.8%
- viability, T/C [30]: 45.9%
- viability, T/C [31]: 36.6%
- viability, T/C [32]: 33.5%
- viability, T/C [33]: 49.3%
- viability, T/C [34]: 35.2%
- viability, T/C [35]: 47.7%
- viability, T/C [36]: 37.7%
